The results in this text go back to patent US20210024507A1, “Compounds” (Step Pharma S.A.S., priority 2018, published 2021).

Like-named read-outs stand apart in the source and are kept apart here. A value given as a limit tells only on which side of the number the result lay.

In the assay the target is T1, human CTPS1 (Homo sapiens, UniProt P17812).
T1 construct: purchased Proteros biostructures GmbH
T1 sequence (P17812 1-591): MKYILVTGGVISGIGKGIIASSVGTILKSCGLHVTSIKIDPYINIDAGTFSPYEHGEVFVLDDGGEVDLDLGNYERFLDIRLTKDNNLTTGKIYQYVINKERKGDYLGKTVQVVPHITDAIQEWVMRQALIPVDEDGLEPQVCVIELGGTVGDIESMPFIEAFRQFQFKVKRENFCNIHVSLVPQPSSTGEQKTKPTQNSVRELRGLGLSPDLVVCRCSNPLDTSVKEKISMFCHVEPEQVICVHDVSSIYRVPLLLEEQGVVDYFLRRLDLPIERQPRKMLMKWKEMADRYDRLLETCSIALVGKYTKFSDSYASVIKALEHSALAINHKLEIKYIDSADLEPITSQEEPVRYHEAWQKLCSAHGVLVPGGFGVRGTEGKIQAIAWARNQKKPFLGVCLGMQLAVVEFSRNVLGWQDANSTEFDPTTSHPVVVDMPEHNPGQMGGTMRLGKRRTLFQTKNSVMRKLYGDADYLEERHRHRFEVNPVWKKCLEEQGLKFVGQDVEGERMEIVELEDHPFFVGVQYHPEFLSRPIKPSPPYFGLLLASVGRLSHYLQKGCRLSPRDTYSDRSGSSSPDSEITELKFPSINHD
Put plainly: Human CTPS1 enzyme inhibition (ADP-Glo Max assay). The class given is biochemical. Particulars: human full length CTPS1, 25° C. As for the experimental part: The enzyme inhibitory activities of compounds invented against the target of interest were determined using the ADP-GIoTM Max assay (Promega, UK). Assays for human CTPS1 were performed in lx assay buffer containing 50mM Tris, 10mM MgCl2, 0.01% Tween-20, pH to 8.0 accordingly. Finally, immediately before use, L-cysteine was added to the lx assay buffer to a final concentration of 2mM. All reagents are from Sigma-Aldrich unless specified otherwise. Human full length active C-terminal FLAG-Hiss-tag CTPS1 (UniProtKB - P17812, CTPS[1-591]-[…]) was obtained from Proteros biostructures GmbH.
Assay Procedure 3× human CTPS1 protein was prepared in lx assay buffer to the final working protein concentration required for the reaction. A 2uL volume per well of 3x human CTPS1 protein was mixed with 2uL per well of 3× test compound (compound prepared in lx assay buffer to an appropriate final 3× compound concentration respective to the concentration response curve designed for the compounds under test) for 10 minutes at 25° C. The enzymatic reaction was then initiated by addition of a 2uL per well volume of a pre-mixed substrate mix (UltraPure ATP from ADP-GIo™ Max kit (0.31mM), GTP (0.034mM), UTP (0.48mM) and L-glutamine (0.186mM)) and the mixture was incubated for an appropriate amount of time within the determined linear phase of the reaction at 25° C. under sealed plate conditions with constant agitation at 500 revolutions per minute (rpm). ADP-GIo™ Max reagent was added for 60 minutes ([…] per well) and subsequently ADP-GIo™ Max development reagent was added for 60 minutes (12uL per well) prior to signal detection in a microplate reader (EnVision® Multilabel Reader, Perkin Elmer). Following each reagent addition over the course of the assay, assay plates were pulse centrifuged for 30 seconds at 500rpm.
In all cases, the enzyme converts ATP to ADP and the ADP-GIo™ Max reagent subsequently depletes any remaining endogenous ATP in the reaction system. The ADP-GIo™ Max detection reagent converts the ADP that has been enzymatically produced back into ATP and using ATP as a substrate together with luciferin for the enzyme luciferase, light is generated which produces a detectable luminescence. […] The percentage inhibition produced by each concentration of compound was calculated using the equation shown below: […]
Percentage inhibition was then plotted against compound concentration, and the 50% inhibitory concentration (IC50) was determined from the resultant concentration-response curve.

The mark [1] stands for this setting: read-out: CTPS1 (Human CTPS1 Enzyme Inhibition, IC50 grouped by potency range).

Turning to `CCC(C(=O)Nc1ccc(-c2cccnc2)cc1F)c1ccnc(NS(=O)(=O)C2CC2)n1` (centres unmarked) [P93, 2-(2-(cyclopropanesulfonamido)pyrimidin-4-yl)-N-(2-fluoro-4-(pyridin-3-yl)phenyl)butanamide], under setting [1], the IC50 lay in the range of 1000 to 10000 nM.

With `CCC(C(=O)Nc1ccc(-c2cncc(OC(C)C)n2)cc1F)c1ccnc(NS(=O)(=O)C2CC2)n1` (centres unmarked) [P97, 2-(2-(cyclopropanesulfonamido)pyrimidin-4-yl)-N-(2-fluoro-4-(6-isopropoxypyrazin-2-yl)phenyl)butanamide], the half-inhibitory concentration (IC50) under setting [1] was not above 100 nM.

As for `CCOc1cncc(-c2ccc(C(=O)NC(CC)c3ccnc(NS(=O)(=O)C4CC4)n3)cc2)n1` (centres unmarked) [P219, N-(1-(2-(cyclopropanesulfonamido)pyrimidin-4-yl)propyl)-4-(6-ethoxypyrazin-2-yl)benzamide], the concentration for half-maximal inhibition (IC50) under setting [1] was 100 to 1000 nM.

For `CCOc1cncc(-c2ccc(NC(=O)C(C)(OC)c3cncc(NS(=O)(=O)C4CC4)n3)nc2)n1` (centres unmarked) [P205, 2-(6-(cyclopropanesulfonamido)pyrazin-2-yl)-N-(5-(6-ethoxypyrazin-2-yl)pyridin-2-yl)-2-methoxypropanamide], the IC50 under setting [1] was not above 100 nM.

Turning to `CCOc1cncc(-c2ccc(C(=O)NC(CC)c3ccnc(NS(=O)(=O)C4CC4)n3)c(C(F)(F)F)c2)n1` (centres unmarked) [P215, N-(1-(2-(cyclopropanesulfonamido)pyrimidin-4-yl)propyl)-4-(6-ethoxypyrazin-2-yl)-2-(trifluoromethyl)benzamide], the IC50 under setting [1] lay within 100 to 1000 nM.

Regarding `CCOc1cncc(-c2ccc(C(=O)NC(CC)c3ccnc(NS(=O)(=O)C4CC4)n3)nc2)n1` (centres unmarked) [P210, N-(1-(2-(cyclopropanesulfonamido)pyrimidin-4-yl)propyl)-5-(6-ethoxypyrazin-2-yl)picolinamide], the IC50 under setting [1] is 100 to 1000 nM.

Turning to `CCC(C(=O)Nc1ccc(-c2cncc(OCC(F)(F)F)c2)cc1F)c1ccnc(NS(=O)(=O)C2CC2)n1` (centres unmarked) [P91, 2-(2-(cyclopropanesulfonamido)pyrimidin-4-yl)-N-(2-fluoro-4-(5-(2,2,2-trifluoroethoxy)pyridin-3-yl)phenyl)butanamide], the IC50 under setting [1] lay in the range of 100 to 1000 nM.

Turning to `CCC(NC(=O)c1ccc(-c2cncc(C(F)(F)F)n2)cc1)c1ccnc(NS(=O)(=O)C2CC2)n1` (centres unmarked) [P217, N-(1-(2-(cyclopropanesulfonamido)pyrimidin-4-yl)propyl)-4-(6-(trifluoromethyl)pyrazin-2-yl)benzamide], the 50% inhibitory concentration (IC50) under setting [1] is 100 to 1000 nM.

Take `CCC(C(=O)Nc1ccc(-c2cncc(C(F)(F)F)n2)cn1)c1cccc(NS(=O)(=O)C2CC2)n1` (centres unmarked) [P187, 2-(6-(cyclopropanesulfonamido)pyridin-2-yl)-N-(5-(6-(trifluoromethyl)pyrazin-2-yl)pyridin-2-yl)butanamide]: the 50% inhibitory concentration (IC50) under setting [1] lay within 100 to 1000 nM.

Regarding `CCOc1cncc(-c2ccc(NC(=O)C(CC)c3nccc(NS(=O)(=O)C4CC4)n3)nc2)n1` (centres unmarked) [P208, 2-(4-(cyclopropanesulfonamido)pyrimidin-2-yl)-N-(5-(6-ethoxypyrazin-2-yl)pyridin-2-yl)butanamide], the IC50 under setting [1] is not above 100 nM.

Consider `CCC(C(=O)Nc1ccc(-c2cccnc2)cc1)c1ccnc(NS(=O)(=O)C2CC2)n1` (centres unmarked) [P102, 2-(2-(cyclopropanesulfonamido)pyrimidin-4-yl)-N-(4-(pyridin-3-yl)phenyl)butanamide], for which the IC50 under setting [1] fell in the range of 100 to 1000 nM.

`CCOc1cncc(-c2ccc(C(=O)NC(C)(CC)c3ccnc(NS(=O)(=O)C4CC4)n3)c(F)c2)n1` (centres unmarked) [P220, N-(2-(2-(cyclopropanesulfonamido)pyrimidin-4-yl)butan-2-yl)-4-(6-ethoxypyrazin-2-yl)-2-fluorobenzamide]: the IC50 under setting [1] was in the range of 100 to 1000 nM.

As to `CCOc1cncc(-c2ccc(NC(=O)C(C)(CCOC)c3cncc(NS(C)(=O)=O)n3)nc2)n1` (centres unmarked) [P199, N-(5-(6-ethoxypyrazin-2-yl)pyridin-2-yl)-4-methoxy-2-methyl-2-(6-(methylsulfonamido)pyrazin-2-yl)butanamide], under setting [1], the IC50 lay in the range of 100 to 1000 nM.

Regarding `CCC(NC(=O)c1ccc(-c2cncc(C(F)(F)F)c2)cc1)c1ccnc(NS(=O)(=O)C2CC2)n1` (centres unmarked) [P213, N-(1-(2-(cyclopropanesulfonamido)pyrimidin-4-yl)propyl)-4-(5-(trifluoromethyl)pyridin-3-yl)benzamide], under setting [1], the concentration for half-maximal inhibition (IC50) lay in the range of 100 to 1000 nM.

Consider `CCOc1cncc(-c2ccc(NC(=O)C(OC)c3cncc(NS(=O)(=O)C4CC4)n3)nc2)n1` (centres unmarked) [P203, 2-(6-(cyclopropanesulfonamido)pyrazin-2-yl)-N-(5-(6-ethoxypyrazin-2-yl)pyridin-2-yl)-2-methoxyacetamide], for which the IC50 under setting [1] was not above 100 nM.

As for `CS(=O)(=O)Nc1cncc(CC(=O)Nc2ccc(-c3cccnc3)cc2)n1` [P194, 2-(6-(methylsulfonamido)pyrazin-2-yl)-N-(4-(pyridin-3-yl)phenyl)acetamide], the IC50 (numeric value printed instead of class symbol, read-out: CTPS1 (Human CTPS1 Enzyme Inhibition, IC50)) turned out to be 58600 nM.

Turning to `CCC(C(=O)Nc1ccc(-c2cncc(C#N)c2)cc1)c1ccnc(NS(=O)(=O)C2CC2)n1` (centres unmarked) [P99, N-(4-(5-cyanopyridin-3-yl)phenyI)-2-(2-(cyclopropanesulfonamido)pyrimidin-4-yl)butanamide], the 50% inhibitory concentration (IC50) under setting [1] lay in the range of 100 to 1000 nM.

On to `CC(C(=O)Nc1ccc(-c2cccnc2)cc1)c1ccnc(NS(=O)(=O)C2CC2)n1` (centres unmarked) [P111, 2-(2-(cyclopropanesulfonamido)pyrimidin-4-yl)-N-(4-(pyridin-3-yl)phenyl)propanamide], for which, under setting [1], the IC50 fell in the range of 100 to 1000 nM.

`CCC(C(=O)Nc1ccc(-c2cncc(OC(C)C)c2)cc1F)c1ccnc(NS(=O)(=O)C2CC2)n1` (centres unmarked) [P92, 2-(2-(cyclopropanesulfonamido)pyrimidin-4-yl)-N-(2-fluoro-4-(5-isopropoxypyridin-3-yl)phenyl)butanamide]: under setting [1], the IC50 lay within 100 to 1000 nM.

As for `CCC(C(=O)Nc1ccc(-c2cncc(OC(C)C)n2)cc1)c1ccnc(NS(=O)(=O)C2CC2)n1` (centres unmarked) [P107, 2-(2-(cyclopropanesulfonamido)pyrimidin-4-yl)-N-(4-(6-isopropoxypyrazin-2-yl)phenyl)butanamide], the IC50 under setting [1] is not above 100 nM.

Regarding `CCC(NC(=O)c1ccc(-c2cncc(C(F)(F)F)c2)cc1F)c1ccnc(NS(=O)(=O)C2CC2)n1` (centres unmarked) [P211, N-(1-(2-(cyclopropanesulfonamido)pyrimidin-4-yl)propyl)-2-fluoro-4-(5-(trifluoromethyl)pyridin-3-yl)benzamide], the IC50 under setting [1] was 100 to 1000 nM.

With `CCOc1cncc(-c2ccc(NC(=O)C(CC)c3cccc(NS(=O)(=O)C4CC4)n3)c(F)c2)n1` (centres unmarked) [P190, 2-(6-(cyclopropanesulfonamido)pyridin-2-yl)-N-(4-(6-ethoxypyrazin-2-yl)-2-fluorophenyl)butanamide], the half-inhibitory concentration (IC50) under setting [1] lay in the range of 100 to 1000 nM.

In the case of `CCC(NC(=O)c1ccc(-c2cncc(Cl)c2)cc1F)c1ccnc(NS(=O)(=O)C2CC2)n1` (centres unmarked) [P212, 4-(5-chloropyridin-3-yl)-N-(1-(2-(cyclopropanesulfonamido)pyrimidin-4-yl)propyl)-2-fluorobenzamide], the IC50 under setting [1] was in the range of 100 to 1000 nM.

For `CCOc1cncc(-c2ccc(NC(=O)C(OC)c3cncc(NS(=O)(=O)C4CC4)n3)cc2)n1` (centres unmarked) [P204, 2-(6-(cyclopropanesulfonamido)pyrazin-2-yl)-N-(4-(6-ethoxypyrazin-2-yl)phenyl)-2-methoxyacetamide], the IC50 under setting [1] was not above 100 nM.

With `CCC(C(=O)Nc1ccc(-c2cncc(OCC(F)(F)F)c2)cn1)c1ccnc(NS(=O)(=O)C2CC2)n1` (centres unmarked) [P85], the IC50 under setting [1] lay within 100 to 1000 nM.

With `CCC(NC(=O)c1ccc(-c2cncc(OC(C)C)n2)cc1)c1ccnc(NS(=O)(=O)C2CC2)n1` (centres unmarked) [P218, N-(1-(2-(cyclopropanesulfonamido)pyrimidin-4-yl)propyl)-4-(6-isopropoxypyrazin-2-yl)benzamide], under setting [1], the IC50 was not above 100 nM.
